Data taken from patent US9796711B2, “Substituted pyrazolo[3,4-b]pyridin-6-carboxylic acids and method of use” (AbbVie S.àr.l., priority 2015, dated 2017).
pEC50: −log10 of the molar value.

Key:
ΔF508-CFTR [1] = biological target: T1, ΔF508-CFTR (Homo sapiens, UniProt P13569, DEL508-508); assay: CFTR cell surface levels using HRP-tagged ΔF508-CFTR expressing CFBE cells, intrinsic corrector capacity; format: cell-based
T1 construct: host or cells: CFBE41o-, doxycycline-inducible
How it was run: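 Here the cells express ΔF508-CFTR with horseradish peroxidase inserted in extracellular loop 4, so only rescued channel at the surface gives luminescent signal. Compounds act on their own, 20 h at the reduced temperature of 33 °C; values are percent activity relative to DMSO and a 3 μM corrector.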

ΔF508-CFTR [2] = biological target: T1, ΔF508-CFTR; assay: CFTR cell surface levels using HRP-tagged ΔF508-CFTR expressing CFBE cells, in the presence of a co-corrector; format: cell-based
How it was run: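 Cells were seeded with 0.5 μg/mL doxycycline and held 68 h at 37 °C. Test compounds plus 3 μM co-corrector (final 0.1% DMSO) were then added for 20 h at 33 °C. Washed cells received HRP substrate, and luminescence was normalized between DMSO and 3 μM co-corrector controls.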

[3] = HRP-tagged ΔF508-CFTR expressing CFBE cells, intrinsic corrector capacity (no co-corrector), 33° C., 20 hours
[4] = HRP-tagged ΔF508-CFTR expressing CFBE cells, intrinsic corrector capacity (no co-corrector), 33° C., 20 hours, read-out: EC50
[5] = HRP-tagged ΔF508-CFTR expressing CFBE cells, in the presence of 3 μM co-corrector
[6] = HRP-tagged ΔF508-CFTR expressing CFBE cells, in the presence of 3 μM co-corrector, read-out: EC50

T1 sequence (P13569 with tags, fused parts or gaps DEL508-508): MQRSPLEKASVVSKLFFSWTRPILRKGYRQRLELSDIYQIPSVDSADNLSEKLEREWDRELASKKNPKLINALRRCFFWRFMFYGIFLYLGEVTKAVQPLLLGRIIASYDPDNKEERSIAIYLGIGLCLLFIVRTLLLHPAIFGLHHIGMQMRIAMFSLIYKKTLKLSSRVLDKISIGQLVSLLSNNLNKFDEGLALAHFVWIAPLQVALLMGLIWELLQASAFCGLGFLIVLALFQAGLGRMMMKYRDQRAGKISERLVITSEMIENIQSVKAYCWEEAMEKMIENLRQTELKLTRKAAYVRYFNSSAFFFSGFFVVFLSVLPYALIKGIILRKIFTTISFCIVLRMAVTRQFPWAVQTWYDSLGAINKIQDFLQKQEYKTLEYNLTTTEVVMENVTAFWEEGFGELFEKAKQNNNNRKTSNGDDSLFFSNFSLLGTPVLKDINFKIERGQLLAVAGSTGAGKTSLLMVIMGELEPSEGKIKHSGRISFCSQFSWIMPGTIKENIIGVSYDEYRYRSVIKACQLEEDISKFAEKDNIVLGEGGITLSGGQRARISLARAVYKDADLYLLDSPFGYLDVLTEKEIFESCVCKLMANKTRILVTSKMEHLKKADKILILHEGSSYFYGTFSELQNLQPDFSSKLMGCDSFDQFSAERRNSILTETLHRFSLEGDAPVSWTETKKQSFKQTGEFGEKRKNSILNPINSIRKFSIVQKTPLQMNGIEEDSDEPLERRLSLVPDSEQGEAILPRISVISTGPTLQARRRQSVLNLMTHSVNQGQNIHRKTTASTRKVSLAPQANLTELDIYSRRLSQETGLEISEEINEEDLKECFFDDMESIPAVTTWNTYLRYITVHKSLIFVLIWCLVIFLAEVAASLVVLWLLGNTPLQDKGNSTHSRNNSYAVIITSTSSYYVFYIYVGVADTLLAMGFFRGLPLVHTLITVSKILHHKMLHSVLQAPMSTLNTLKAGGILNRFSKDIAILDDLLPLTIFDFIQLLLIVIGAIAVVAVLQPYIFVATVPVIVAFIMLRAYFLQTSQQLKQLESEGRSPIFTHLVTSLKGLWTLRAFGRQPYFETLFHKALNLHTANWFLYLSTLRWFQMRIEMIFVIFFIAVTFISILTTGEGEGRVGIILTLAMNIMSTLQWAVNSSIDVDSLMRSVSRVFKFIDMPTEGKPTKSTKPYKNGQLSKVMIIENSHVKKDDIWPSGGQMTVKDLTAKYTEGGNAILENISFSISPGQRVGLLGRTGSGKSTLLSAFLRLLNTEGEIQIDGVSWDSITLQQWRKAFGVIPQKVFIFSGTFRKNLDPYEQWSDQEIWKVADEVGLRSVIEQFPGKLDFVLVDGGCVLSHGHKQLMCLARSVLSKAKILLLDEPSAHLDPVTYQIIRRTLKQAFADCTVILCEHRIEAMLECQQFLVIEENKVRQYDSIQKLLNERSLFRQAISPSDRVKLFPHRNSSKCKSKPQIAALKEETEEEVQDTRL

## CCN(CC)CCN1CCN(c2cc(C(=O)O)nc3c2c(C(C)C)nn3-c2ccc(F)cc2)CC1 [compound 800, 4-[4-[2-(diethylamino)ethyl]piperazin-1-yl}-1-(4-fluorophenyl)-3-(propan-2-yl)-1H-pyrazolo[3,4-b]pyridine-6-carboxylic acid]
ΔF508-CFTR [1]; [3]
  % Activation: 45.22%
ΔF508-CFTR [1]; [4]
  pEC50: 5.78
ΔF508-CFTR [2]; [5]
  % Activation: 214.8%
ΔF508-CFTR [2]; [6]
  pEC50: 5.83

## CC(C)c1nn(-c2ccc(F)cc2)c2nc(C(=O)O)cc(N3CCN(C4CCN(C)CC4)CC3)c12 [compound 801, 1-(4-fluorophenyl)-4-[4-(1-methylpiperidin-4-yl)piperazin-1-yl]-3-(propan-2-yl)-1H-pyrazolo[3,4-b]pyridine-6-carboxylic acid]
ΔF508-CFTR [1]; [3]
  % Activation: 67.99%
ΔF508-CFTR [1]; [4]
  pEC50: 5.78
ΔF508-CFTR [2]; [5]
  % Activation: 253.1%
ΔF508-CFTR [2]; [6]
  pEC50: 5.78

## COC[C@@H]1CCN(CC2CCN(c3cc(C(=O)O)nc4c3c(C3CCC3)nn4-c3ccccc3)CC2)C1 [compound 802, 3-cyclobutyl-4-(4-{[(3R)-3-(methoxymethyl)pyrrolidin-1-yl]methyl}piperidin-1-yl)-1-phenyl-1H-pyrazolo[3,4-b]pyridine-6-carboxylic acid]
ΔF508-CFTR [1]; [3]
  % Activation: 218%
ΔF508-CFTR [1]; [4]
  pEC50: 6.34
ΔF508-CFTR [2]; [5]
  % Activation: 439.7%
ΔF508-CFTR [2]; [6]
  pEC50: 6.11

## CC(C1CCN(c2cc(C(=O)O)nc3c2c(C2CCC2)nn3-c2ccc(F)cc2)CC1)N1CCOCC1 (stereo not drawn) [compound 805, 3-cyclobutyl-1-(4-fluorophenyl)-4-{4-[1-(morpholin-4-yl)ethyl]piperidin-1-yl}-1H-pyrazolo[3,4-b]pyridine-6-carboxylic acid]
ΔF508-CFTR [1]; [3]
  % Activation: 364%
ΔF508-CFTR [1]; [4]
  pEC50: 7.14
ΔF508-CFTR [2]; [5]
  % Activation: 671%
ΔF508-CFTR [2]; [6]
  pEC50: 7.32

## CC(C)c1nn(-c2ccc(F)cc2)c2nc(C(=O)O)cc(N3CCC(CN4CCCC4)CC3)c12 [compound 811, 1-(4-fluorophenyl)-3-(propan-2-yl)-4-{4-[(pyrrolidin-1-yl)methyl]piperidin-1-yl}-1H-pyrazolo[3,4-b]pyridine-6-carboxylic acid]
ΔF508-CFTR [1]
  pEC50: 6.05
ΔF508-CFTR [1]; [3]
  % Activation: 120.4%
ΔF508-CFTR [2]
  pEC50: 5.97
ΔF508-CFTR [2]; [5]
  % Activation: 408.4%

## COCC1CCN(c2cc(C(=O)O)nc3c2c(C2CCC2)nn3-c2ccnc(C3CCOCC3)c2)CC1 [compound 817, 3-cyclobutyl-4-[4-(methoxymethyl)piperidin-1-yl]-1-[2-(oxan-4-yl)pyridin-4-yl]-1H-pyrazolo[3,4-b]pyridine-6-carboxylic acid]
ΔF508-CFTR [1]; [3]
  % Activation: 168%
ΔF508-CFTR [1]; [4]
  pEC50: 6.82
ΔF508-CFTR [2]; [5]
  % Activation: 384.9%
ΔF508-CFTR [2]; [6]
  pEC50: 7.33

## O=C(O)c1cc(N2CCC(N3CCOCC3)CC2)c2c(C3CCC3)nn(-c3ccnc(C4CCOCC4)c3)c2n1 [compound 819, 3-cyclobutyl-4-[4-(morpholin-4-yl)piperidin-1-yl]-1-[2-(oxan-4-yl)pyridin-4-yl]-1H-pyrazolo[3,4-b]pyridine-6-carboxylic acid]
ΔF508-CFTR [1]; [3]
  % Activation: 174.7%
ΔF508-CFTR [1]; [4]
  pEC50: 5.48
ΔF508-CFTR [2]; [5]
  % Activation: 313.1%
ΔF508-CFTR [2]; [6]
  pEC50: 5.48

## Cc1cccc(-n2nc(C3CCC3)c3c(N4CCC(N5CCOCC5)CC4)cc(C(=O)O)nc32)c1 [compound 820, 3-cyclobutyl-1-(3-methylphenyl)-4-[4-(morpholin-4-yl)piperidin-1-yl]-1H-pyrazolo[3,4-b]pyridine-6-carboxylic acid]
ΔF508-CFTR [1]; [3]
  % Activation: 351.3%
ΔF508-CFTR [1]; [4]
  pEC50: 6.55
ΔF508-CFTR [2]; [5]
  % Activation: 499.75%
ΔF508-CFTR [2]; [6]
  pEC50: 6.91

## COc1cccc(-n2nc(C3CCC3)c3c(N4CCC(N5CCOCC5)CC4)cc(C(=O)O)nc32)c1 [compound 822, 3-cyclobutyl-1-(3-methoxyphenyl)-4-[4-(morpholin-4-yl)piperidin-1-yl]-1H-pyrazolo[3,4-b]pyridine-6-carboxylic acid]
ΔF508-CFTR [1]; [3]
  % Activation: 272.3%
ΔF508-CFTR [1]; [4]
  pEC50: 6.52
ΔF508-CFTR [2]; [5]
  % Activation: 472.75%
ΔF508-CFTR [2]; [6]
  pEC50: 5.94
